Results reported in patent publication US6902926B1, “Toxoplasma gondii apical membrane antigen-1” (priority 2000, dated 2005).

System: secretion of the 53-kDa fragment of TgAMA-1
Assay: Secretion assay: TgAMA-1 released from tachyzoites into culture supernatant, by western blot
Type: cell-based, Toxoplasma gondii
Conditions: for secretion of the 53-kDa fragment of TgAMA-1: 2-min treatment at 37° C.
Procedure: Tachyzoites (2F strain, constitutively expressing cytoplasmic β-galactosidase [generous gift of David Sibley]) were washed twice in DMEM+20 mM HEPES, pH 7.0 (4 min, 1000×g, 23° C.), and resuspended in 4 ml polystyrene round bottom tubes at a concentration of 2×10^8 tachyzoites/ml. The suspension was incubated for various times at 37° C. or treated for 15 min at 23° C. with either 1.0% (v/v) DMSO or 20 μM BAPTA-AM (1.0% [v/v] DMSO final), followed by 2 min at 37° C. with 200 nM A23187 (1.0% [v/v] DMSO final) or 1.0% ethanol. Cells were pelleted (4 min, 1000×g, 4° C.) and dissolved in SDS-PAGE sample buffer. Supernatants were recentrifuged (4 min, 1000×g, 4° C.) and dissolved in sample buffer. The samples were incubated for 10 min at 100° C. and analyzed by SDS-PAGE/western blotting. Gels to be probed with either Mab B3.90 or antipeptide antiserum UVT59 were run under non-reducing conditions; blots to be probed with Mab 6D10 were run under reducing conditions. The extent of parasite lysis was determined by measuring the levels of β-galactosidase in the supernatant, as previously described.

SMILES | secretion of the 53-kDa fragment of TgAMA-1 | effect of pretreatment on ethanol/A23187-enhanced secretion of the 53-kDa fragment (pretreating the parasites before ethanol or A23187)
CNc1ccc2oc(C[C@H]3O[C@@]4(CC[C@H]3C)O[C@H]([C@H](C)C(=O)c3ccc[nH]3)[C@H](C)C[C@H]4C)nc2c1C(=O)O [A23187] | dramatically enhanced | –
CC(=O)OCOC(=O)CN(CC(=O)OCOC(C)=O)c1ccccc1OCCOc1ccccc1N(CC(=O)OCOC(C)=O)CC(=O)OCOC(C)=O [BAPTA-AM] | – | abrogated
CCO [ethanol] | dramatically enhanced | –
